Measurements from article PMC5668067, “Phase I dose-escalation study of the c-Met tyrosine kinase inhibitor SAR125844 in Asian patients with advanced solid tumors, including patients with MET-amplified gastric cancer” (Oncotarget, 2017).
Like-named read-outs stand apart in the source and are kept apart here.

How the values were obtained:
[1] = tested on: solid tumors, including MET-amplified gastric cancer; assay: phase I antitumor activity (RECIST 1.1); format: in vivo, human
Procedure: Tumor response was evaluated by the Response Evaluation Criteria In Solid Tumors version 1.1, which define complete response as disappearance of all target lesions, partial response and progressive disease as a minimally 30% decrease or 20% increase, respectively, in the sum of diameters of target lesions, and stable disease as neither sufficient shrinkage to qualify for partial response nor sufficient increase to qualify for progressive disease. Tumor burden was assessed from computerized tomography or magnetic resonance imaging scans performed at baseline, at the end of cycle 1, and every 8 weeks thereafter. Patients evaluable for efficacy received at least one cycle of SAR, with a minimum of two infusions, and had undergone efficacy assessment at baseline and once or more after that.
In the dose-expansion cohort, MET amplification in tumor tissue was evaluated by a FISH assay. A tumor was considered MET amplified if ≥ 10% of cells had more than four gene copies of MET and the MET:CEP7 ratio was ≥ 2. Total c-MET protein expression was evaluated by immunohistochemistry, calculating the percentage of tumor cells with an immunohistochemistry score of 2+ or 3+ membrane staining. […] Immunohistochemistry was performed on fresh or archival tumor tissue.

[2] = phase I pharmacokinetics in blood (dried blood spot, LC-MS/MS, noncompartmental analysis); format: in vivo, human; conditions: for fold increase in AUC0–168: 2.19-fold increase in dose (260 to 570 mg/m^2); for Cmax: blood; for AUC(0-t): read-out: AUC0–168
Procedure: Blood samples for pharmacokinetic analysis were acquired using dried blood-spot technology on days 1 and 22 of cycle 1 at several time points before, during, and after infusion (up to 168 hours after administration). Drug concentrations were determined by a validated method of liquid chromatography and tandem mass spectrometry (limit of quantification 2 ng/mL). Pharmacokinetic parameters were calculated using a noncompartmental analysis and included the maximum observed blood concentration (Cmax), AUC from 0 to infinity, AUC0–168, CL, CL after repeated administrations (CLss), volume of distribution at steady state (Vss), and the half-life associated with the terminal slope (t1/2z).

[3] = tested on: xenograft models of MET-amplified human gastric tumors; parameters: method as in PMID 25504634; conditions: cited from earlier work
[4] = dose-expansion cohort (N = 19), 570 mg/m^2
[5] = human, whole blood (dried blood spot), intravenous, 260 mg/m2, 260 mg/m^2, cycle 1 Day 22, N = 2, mean
[6] = human, whole blood (dried blood spot), intravenous, 340 mg/m2, 340 mg/m^2, cycle 1 Day 1, N = 2, mean
[7] = human, whole blood (dried blood spot), intravenous, 340 mg/m2, 340 mg/m^2, cycle 1 Day 22, N = 3, mean ± SD
[8] = human, whole blood (dried blood spot), intravenous, 440 mg/m2, 440 mg/m^2, cycle 1 Day 1, n = 2, mean
[9] = human, whole blood (dried blood spot), intravenous, 440 mg/m2, 440 mg/m^2, cycle 1 Day 22, N = 3, mean ± SD
[10] = human, whole blood (dried blood spot), intravenous, 570 mg/m2, 570 mg/m^2, cycle 1 Day 1, n = 20, mean ± SD
[11] = human, whole blood (dried blood spot), intravenous, 570 mg/m2, 570 mg/m^2, cycle 1 Day 22, N = 17, mean ± SD
[12] = two xenograft models, intravenous single-agent

For O=C(NCCN1CCOCC1)Nc1nc2ccc(Sc3nnc4ccc(-c5ccc(F)cc5)nn34)cc2s1 [SAR125844], the “patients with early disease progression leading to treatment discontinuation in cycle 1” value ([1]; dose-escalation cohort) was 11 patients, the objective responses ([1]; dose-escalation cohort (unselected population, N = 19)) was “No objective responses” and the “median time to tumor progression” value ([1]; dose-escalation cohort, 340 mg/m^2) was 0.9 months. For the same compound, the “median time to tumor progression” value ([1]; dose-escalation cohort, 440 mg/m^2) was 1.7 months, the “patients with stable disease” value ([1]; dose-escalation cohort, after 1 month of treatment) was “seven” and the “patients with stable disease” value ([1]; dose-escalation cohort, after 1 month of treatment, listed as SAR) was 7 patients. The “patients with progressive disease” value [1, 4] was 10 patients, the “patients with stable disease” value [1, 4] was “seven” and the “confirmed partial response / objective response rate” value ([1]; dose-expansion cohort, MET-amplified tumors, 570 mg/m^2, two of 19 patients) was 10.5%. The “patients with unconfirmed partial response” value ([1]; dose-expansion cohort, gastric cancer) was “one”, the “median time to tumor progression” value ([1]; dose-expansion cohort, median (range)) was 0.92 (0.4–9) months and the “median time to tumor progression” value ([1]; gastric cancer subpopulation of dose-expansion cohort, median (range)) was 1.18 (0.4–9) months. For the same compound, the “overall response rate (partial response rate)” value ([1]; gastric cancer subpopulation with MET amplification, two of 14 patients) was 14.3%, the “fold increase in AUC0–168” value ([2]; day 1) was 3.00 fold and the “fold increase in AUC0–168” value ([2]; day 22) was 2.69 fold. For the same compound, the “accumulation between days 1 and 22” value ([2]; four repeated once-weekly infusions) was “no accumulation”, the Cmax ([2]; human, whole blood (dried blood spot), intravenous, 260 mg/m2, 260 mg/m^2, cycle 1 Day 1, N = 6, mean ± SD) was 4140 ± 1070 ng/mL and the AUC(0-t) ([2]; human, whole blood (dried blood spot), intravenous, 260 mg/m2, 260 mg/m^2, cycle 1 Day 1, n = 5, mean ± SD) was 11800 ± 2960 ng·h/mL. It also gave a clearance ([2]; human, whole blood (dried blood spot), intravenous, 260 mg/m2, 260 mg/m^2, cycle 1 Day 1, n = 5, mean ± SD, read-out: CL (converted)) of 608 mL/min, a Vd ([2]; human, whole blood (dried blood spot), intravenous, 260 mg/m2, 260 mg/m^2, cycle 1 Day 1, n = 5, mean ± SD, read-out: Vss) of 232 ± 57.5 L and a half-life ([2]; human, whole blood (dried blood spot), intravenous, 260 mg/m2, 260 mg/m^2, cycle 1 Day 1, n = 5, mean ± SD, read-out: t1/2z (converted)) of 12.6 ± 6.05 h. For the same compound, the AUC [2, 5] was 12600 ng·h/mL, the Cmax [2, 5] was 3550 ng/mL and the AUC(0-t) [2, 5] was 12700 ng·h/mL. For the same compound, the clearance ([2]; human, whole blood (dried blood spot), intravenous, 260 mg/m2, 260 mg/m^2, cycle 1 Day 22, N = 2, mean, read-out: CL (converted)) was 533 mL/min, the Vd ([2]; human, whole blood (dried blood spot), intravenous, 260 mg/m2, 260 mg/m^2, cycle 1 Day 22, N = 2, mean, read-out: Vss) was 186 L and the half-life ([2]; human, whole blood (dried blood spot), intravenous, 260 mg/m2, 260 mg/m^2, cycle 1 Day 22, N = 2, mean, read-out: t1/2z (converted)) was 12.6 h. The AUC ([2]; human, whole blood (dried blood spot), intravenous, 260 mg/m2, AUC from 0 to infinity, 260 mg/m^2, cycle 1 Day 1, n = 5, mean ± SD) was 11800 ± 2950 ng·h/mL, the AUC [2, 6] was 16400 ng·h/mL and the Cmax [2, 6] was 4290 ng/mL. The AUC(0-t) [2, 6] was 16400 ng·h/mL, the clearance ([2]; human, whole blood (dried blood spot), intravenous, 340 mg/m2, 340 mg/m^2, cycle 1 Day 1, N = 2, mean, read-out: CL (converted)) was 565 mL/min and the Vd ([2]; human, whole blood (dried blood spot), intravenous, 340 mg/m2, 340 mg/m^2, cycle 1 Day 1, N = 2, mean, read-out: Vss) was 246 L. It also gave a half-life ([2]; human, whole blood (dried blood spot), intravenous, 340 mg/m2, 340 mg/m^2, cycle 1 Day 1, N = 2, mean, read-out: t1/2z (converted)) of 12.9 h, an AUC [2, 7] of 16500 ± 2390 ng·h/mL and a Cmax [2, 7] of 4700 ± 976 ng/mL. The AUC(0-t) [2, 7] was 16500 ± 2390 ng·h/mL, the clearance ([2]; human, whole blood (dried blood spot), intravenous, 340 mg/m2, 340 mg/m^2, cycle 1 Day 22, N = 3, mean ± SD, read-out: CL (converted)) was 557 mL/min and the Vd ([2]; human, whole blood (dried blood spot), intravenous, 340 mg/m2, 340 mg/m^2, cycle 1 Day 22, N = 3, mean ± SD, read-out: Vss) was 291 ± 52.6 L. The half-life ([2]; human, whole blood (dried blood spot), intravenous, 340 mg/m2, 340 mg/m^2, cycle 1 Day 22, N = 3, mean ± SD, read-out: t1/2z (converted)) was 20.6 ± 4.69 h, the Cmax ([2]; human, whole blood (dried blood spot), intravenous, 440 mg/m2, 440 mg/m^2, cycle 1 Day 1, N = 3, mean ± SD) was 6390 ± 1010 ng/mL and the AUC [2, 8] was 22000 ng·h/mL. It also gave an AUC(0-t) [2, 8] of 22100 ng·h/mL, a clearance ([2]; human, whole blood (dried blood spot), intravenous, 440 mg/m2, 440 mg/m^2, cycle 1 Day 1, n = 2, mean, read-out: CL (converted)) of 530 mL/min and a Vd ([2]; human, whole blood (dried blood spot), intravenous, 440 mg/m2, 440 mg/m^2, cycle 1 Day 1, n = 2, mean, read-out: Vss) of 202 L. It also gave a half-life ([2]; human, whole blood (dried blood spot), intravenous, 440 mg/m2, 440 mg/m^2, cycle 1 Day 1, n = 2, mean, read-out: t1/2z (converted)) of 12.1 h, an AUC [2, 9] of 25400 ± 5300 ng·h/mL and a Cmax [2, 9] of 5840 ± 1420 ng/mL. For the same compound, the AUC(0-t) [2, 9] was 25300 ± 5220 ng·h/mL, the clearance ([2]; human, whole blood (dried blood spot), intravenous, 440 mg/m2, 440 mg/m^2, cycle 1 Day 22, N = 3, mean ± SD, read-out: CL (converted)) was 503 mL/min and the Vd ([2]; human, whole blood (dried blood spot), intravenous, 440 mg/m2, 440 mg/m^2, cycle 1 Day 22, N = 3, mean ± SD, read-out: Vss) was 490 ± 366 L. It also gave a half-life ([2]; human, whole blood (dried blood spot), intravenous, 440 mg/m2, 440 mg/m^2, cycle 1 Day 22, N = 3, mean ± SD, read-out: t1/2z (converted)) of 27.5 ± 8.24 h, a Cmax ([2]; human, whole blood (dried blood spot), intravenous, 570 mg/m2, 570 mg/m^2, cycle 1 Day 1, N = 21, mean ± SD) of 6570 ± 1680 ng/mL and an AUC [2, 10] of 36200 ± 11800 ng·h/mL. The AUC(0-t) [2, 10] was 36100 ± 11800 ng·h/mL, the clearance ([2]; human, whole blood (dried blood spot), intravenous, 570 mg/m2, 570 mg/m^2, cycle 1 Day 1, n = 20, mean ± SD, read-out: CL (converted)) was 463 mL/min and the Vd ([2]; human, whole blood (dried blood spot), intravenous, 570 mg/m2, 570 mg/m^2, cycle 1 Day 1, n = 20, mean ± SD, read-out: Vss) was 241 ± 55.3 L. For the same compound, the half-life ([2]; human, whole blood (dried blood spot), intravenous, 570 mg/m2, 570 mg/m^2, cycle 1 Day 1, n = 20, mean ± SD, read-out: t1/2z (converted)) was 22.8 ± 9.47 h, the AUC [2, 11] was 35100 ± 15000 ng·h/mL and the Cmax [2, 11] was 6330 ± 1270 ng/mL. The AUC(0-t) [2, 11] was 35100 ± 14900 ng·h/mL, the clearance ([2]; human, whole blood (dried blood spot), intravenous, 570 mg/m2, 570 mg/m^2, cycle 1 Day 22, N = 17, mean ± SD, read-out: CL (converted)) was 482 mL/min and the Vd ([2]; human, whole blood (dried blood spot), intravenous, 570 mg/m2, 570 mg/m^2, cycle 1 Day 22, N = 17, mean ± SD, read-out: Vss) was 287 ± 105 L. It also gave a half-life ([2]; human, whole blood (dried blood spot), intravenous, 570 mg/m2, 570 mg/m^2, cycle 1 Day 22, N = 17, mean ± SD, read-out: t1/2z (converted)) of 21.2 ± 4.94 h, a half-life ([2]; human, whole blood (dried blood spot), intravenous, 570 mg/m2, at the RD (570 mg/m^2), read-out: elimination half-life (converted)) of roughly 21 h and a Vd ([2]; human, whole blood (dried blood spot), intravenous, 570 mg/m2, at the RD (570 mg/m^2), read-out: volume of distribution at steady state) of roughly 253 L. The clearance ([2]; qualitative) was “medium”, the “effect of dose on total body clearance (CL)” value ([2]; statistical analysis, P = 0.25) was “no significant effect” and the “effect of dose on CL at steady state (CLs)” value ([2]; statistical analysis, P = 0.79) was “no significant effect”. For the same compound, the toxicity profile ([3]; preclinical) was “acceptable toxicity profile”, the “c-Met kinase inhibition in xenograft tumors” value [3, 12] was “c-Met kinase inhibition” and the tumor regression [3, 12] was “dose-dependent tumor regression”.
